Legend:
Assay type in all cases: cell-based, dog
[1] = system: nitric-oxide guanosine 3′,5′cyclic monophosphate pathway; test: Effect of NOS, guanylyl cyclase and PKG inhibitors on lysozyme's myocardial depressant effect in right ventricular trabecular preparation; settings: for Effect on lysozyme's myocardial depressant effect: muscle incubated with inhibitor about one hour before lysozyme
Method: (§1) The right ventricular trabecular preparation used in this study has previously been described. Briefly, mongrel dogs (3 to 10 kg) were anesthetized with pentobarbital. The hearts were removed, flushed with 50 ml of Krebs-Henseleit solution (KH), and placed in ice-cold KH bubbled with a mixture of 95% O2 and 5% CO2. Three to four thin trabeculae (<1 mm diameter) were obtained from the right ventricle and were tied at each end with 6-O silk thread. Each thin muscle was suspended in a 5 ml vertical constant temperature bath that contained KH. The muscle was stimulated electrically via punctate platinum bipolar electrodes with rectangular pulses (1 ms duration) at an intensity of 50% above threshold delivered at intervals of 2,000 ms. The trabeculae were stretched to optimal length.
The plasma concentration of lysozyme attained in the inventors' sepsis model is approximately 10^−8M, and the 10^−7M to 10^−9M range was used in the experiments described below. Lysozyme was purified from the spleens of nonseptic dogs as previously described. Measurements were obtained at 5 minute intervals.
In one group of experiments, the non-specific nitric oxide synthase inhibitor N^G-monomethyl-L-arginine (L-LNMMA) was used to determine whether it could inhibit the depressant effect of lysozyme. The muscle was incubated with L-NMMA (10^−3M) for approximately one hour after which lysozyme was instilled into the preparation. As a negative control group, ventricular trabeculae were incubated with D-NMMA after which lysozyme was instilled. With the D-isomer, no inhibition of lysozyme's effect would be expected.
In separate experiments, the respective roles of eNOS, nNOS, and iNOS were evaluated in which the objective was to determine which of the NOS isoforms was responsible for the myocardial depression observed with lysozyme. The relatively specific inhibitors for eNOS (L-NIO.2HCl [L-N^5-(1-[Iminoethyl)-ornithine.2HCl], nNOS (N-ω-Propyl-L-arginine [N^5-[Imino(propylamino)methyl]-L-ornithine], and iNOS (1400W.dihydrochloride [N-(3-aminomethyl)benzyl)acetamidine.2HCl] were compared in respective experiments in which a range of concentrations of either NOS inhibitor was used.
In other experiments, the muscle was incubated ODQ (10^−3M) or the PKG inhibitor (Rp-8-Br-cGMP) for one hour. The effect of lysozyme on isometric tension was compared to trabeculae without the respective inhibitors.
The results are expressed as a percent of baseline isometric tension. Statistical analyses included two-way analysis of variance and Student Newman Keuls' multiple comparison test. The results are reported as mean (±SD).

lysozyme c (Lzm-S) = biological target: T1, lysozyme c (Lzm-S) (Canis lupus familiaris, UniProt P81709); test: Inhibition of Lzm-S's myocardial depressant activity (isometric tension) in right ventricular trabecular preparation; settings: for Isometric tension following pre-treatment with sugar: sugar 10^−3M added before Lzm-S; for Inhibition of Lzm-S's depressant effect on isometric tension: inhibitor 10^−3M added before Lzm-S, paced 0.5 Hz
T1 construct: Lzm-S was purified in a manner described by Grobler et al (14); from tissue
T1 sequence (P81709 1-130): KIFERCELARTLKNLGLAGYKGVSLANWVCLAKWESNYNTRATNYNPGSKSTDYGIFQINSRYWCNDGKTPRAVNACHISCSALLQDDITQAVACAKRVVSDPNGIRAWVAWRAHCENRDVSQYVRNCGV
Method: In subsequent experiments, the objective was to determine whether pretreatment of Lzm-S with the proteolytic enzyme proteinase-K reduced the extent to which myocardial depression developed in the in vitro preparation (7). Proteinase-K (attached to beaded agarose; Sigma Chemical, St Louis, Mo.) was added to the pure Lzm-S preparation. The effects of proteinase-K treated and nontreated Lzm-S on isometric tension were compared between the samples. Since proteinase-K is a non-specific proteolytic enzyme, a specific competitive inhibitor of lysozyme, TAC (chitotriose) was subsequently examined to determine whether it prevented the depression in isometric tension observed in the in vitro preparation (16,17).
In one set of experiments, it was determined whether TAC prevented the reduction in tension observed with Lzm-S. A dose of 10^−3M TAC (based on preliminary experiments) was added to the organ bath before the addition of Lzm-S. Lzm-S was then added to bring the final concentrations to 10^−10M, 10^−9M, 10^−8M, and 10^−7M in sequential steps. In a related set of experiments, the effect of TAC was studied under a similar protocol in which the ventricular trabecular preparation was paced at 1 Hz instead of 0.5 Hz. The objective was to determine whether the higher frequency altered the inhibitory response of TAC. In a third set of experiments, the sequence of adding TAC and Lzm-S was reversed. Lzm-S (10^−7M) was initially added to the preparation, after which TAC at bath concentrations of 10^−6M, 10^−5M, 10^−4M, 10^−3M were sequentially added. The objective was to determine whether TAC could attenuate the effect of Lzm-S on reducing the isometric response after an initial depression in isometric tension had already been attained.
as §1, with “(RV)” for “trabecular”, “also” for “previously”, “described (49,6).” for “described.”, “a” for “a 5 ml”, “bath (5 ml)” for “bath”, “KH (in mM: NaCl, 118; KCl, 4.7; CaCl2 2.5; MgSO4, 1.2; KH2PO4, 1.4; NaHCO3, 25; and dextrose, 11).” for “KH.”
Inhibitory activities of N-acetylglucosamine (NAG), N,N′ diacetylglucosamine (NAG-NAG: N,N′ diacetylchitobiose), and N,N′,N″,N′″ tetraacetylglucosamine (NAG-NAG-NAG-NAG: N,N′,N″,N′″-tetraacetylchitotetraose) were examined (Sigma Corp Canada, Oakville Ontario). These are structurally similar to TAC, but have a different number of NAG units (17). Two somewhat related sugars were also examined to see if there was potential for blocking the activity of lysozyme. These included D-cellotriose and N-aceytllactosamine. D-cellotriose includes three glucose residues linked by beta (1-4) glycosidic linkages, while N acetyllactosamine includes N-acetylglucosamine and galactose residues linked by beta (1-4) glycosidic linkages (12).
After baseline tension was determined, either the sugar or placebo was placed into respective organ baths. The concentration of the sugar used was 10^−3M based on the inventors' previous experiments with TAC 49), while the concentrations of lysozyme were 10^−9, 10^−8, and 10^−7M, respectively. Measurements were obtained at 5 minute intervals. The changes in isometric tension measured from baseline were compared between the treated and placebo baths. […]

[2] = system: right ventricular trabecular preparation; test: Effect of the substance itself on isometric tension in right ventricular trabecular preparation
Method: Aliquots of the 10-30 KD plasma fraction (0.05 to 1 ml) were then added to a right ventricular (RV) trabecular preparation to test for the presence of FCS activity. The RV preparation has previously been described (6,7). Briefly, mongrel dogs (3 to 10 kg) were anesthetized with pentobarbital, and their hearts were removed. Three to four thin trabeculae (<1 mm diameter) were obtained from the right ventricle and were suspended in a vertical constant temperature bath (5 ml) that contained Krebs Henseleit (KH) solution. The muscle was stimulated electrically at 0.5 Hz. Aliquots of plasma fractions (from 0.05 to 1 ml) were added to respective organ baths at 5 minute intervals. The changes observed in the pre and septic plasma fractions were expressed relative to tensions found at baseline (i.e. prior to the addition of the sample). An increase in the depressant activity in the septic plasma fraction relative to that found in the presepsis sample was indicative of an increase in FCS.
The effect of purified Lzm-S on myocardial depression was then studied in the ventricular trabecular preparation. In initial experiments, the objective was to compare Lzm-S prepared from septic and nonseptic spleens to see if there was any difference between the two preparations. Although no differences were apparent by SDS-PAGE gel, different isoforms of the enzyme could have developed in sepsis thereby increasing its potential to cause myocardial depression. Aliquots of the septic and nonseptic preparations were added (at 5 minute intervals) to respective organ baths, and the changes in isometric tension were then compared between Lzm-S obtained from spleens of septic and nonseptic animals.
The right ventricular (RV) preparation used in this study has also been described (49,6). Briefly, mongrel dogs (3 to 10 kg) were anesthetized with pentobarbital. The hearts were removed, flushed with 50 ml of Krebs-Henseleit solution (KH), and placed in ice-cold KH bubbled with a mixture of 95% O2 and 5% CO2. […]
After baseline tension was determined, either the lectin or placebo was placed into respective organ baths. […]

Structure (SMILES) | Effect on lysozyme's myocardial depressant effect [1] | Isometric tension following pre-treatment with sugar (lysozyme c (Lzm-S); Lzm-S 10^−7M) | Isometric tension following pre-treatment with sugar (lysozyme c (Lzm-S); Lzm-S 10^−8M) | Isometric tension following pre-treatment with sugar (lysozyme c (Lzm-S); Lzm-S 10^−9M) | Inhibition of Lzm-S's depressant effect on isometric tension (lysozyme c (Lzm-S)) | also measured
CC(=N)NCCC[C@H](N)C(=O)O.Cl.Cl [eNOS] | most potent in the prevention of lysozyme's myocardial depressant effect | – | – | – | – | Concentration of the NOS inhibitor at which lysozyme's depressant effect was prevented [1]: 10^−8 M
O=c1onc2cnc3ccccc3n12 [ODQ, 1H-[1,2,4] oxidadiazolo-[4,3-a] quinoxalin-1-one] | blocked | – | – | – | – | –
N=C(N)NCCC[C@H](N)C(=O)O [L-arginine] | – | – | – | – | – | Effect on the inhibition by L-NMMA [1]: able to competively overcome the effect of L-NMMA
CNC(=N)NCCC[C@H](N)C(=O)O [L-NMMA, N^G-monomethyl-L-arginine, reference compound] | markedly attenuated | – | – | – | – | Effect of the substance by itself on isometric tension [2]: no change in isometric tension
O=c1c2nc(Br)n(C3OC4COP([O-])(=S)OC4C3O)c2nc2[nH]c(-c3ccccc3)cn12.[Na+] (single isomer, unassigned) [Rp-8-Br-cGMP, guanosine 3′,5′-cyclic monophosphorothioate, β-phenyl-1, N^2-etheno-8-bromo-Pp-isomer, sodium salt] | blocked | – | – | – | – | –
CC(=O)N[C@H]1[C@H](O[C@H]2[C@H](O)[C@@H](NC(C)=O)C(O)O[C@@H]2CO)O[C@H](CO)[C@@H](O[C@@H]2O[C@H](CO)[C@@H](O[C@@H]3O[C@H](CO)[C@@H](O)[C@H](O)[C@H]3NC(C)=O)[C@H](O)[C@H]2NC(C)=O)[C@@H]1O (stereo partly shown) [tetraacetylchitotetraose, N,N′,N″,N′″ tetraacetylglucosamine] | – | – | – | – | no inhibitory effect | Inhibition of Lzm-S's depressant effect on isometric tension (lysozyme c (Lzm-S); listed as N,N′,N″,N′″ tetraacetylchitotetraose): no inhibitory effect on lysozyme's depressant activity
CNC(=N)NCCCC(N)C(=O)O [D-NMMA] | no inhibition | – | – | – | – | –

Second part, led by results:

Effect on lysozyme's myocardial depressant effect [1] | Isometric tension following pre-treatment with sugar (lysozyme c (Lzm-S); Lzm-S 10^−7M) | Isometric tension following pre-treatment with sugar (lysozyme c (Lzm-S); Lzm-S 10^−8M) | Isometric tension following pre-treatment with sugar (lysozyme c (Lzm-S); Lzm-S 10^−9M) | Structure (SMILES) | Inhibition of Lzm-S's depressant effect on isometric tension (lysozyme c (Lzm-S)) | also measured
– | 58±17 % of baseline | 79±13 % of baseline | 84±9 % of baseline | OCC1OC(OC2C(CO)OC(OC3C(CO)OC(O)C(O)C3O)C(O)C2O)C(O)C(O)C1O [cellotriose, D-cellotriose] | neither N-acetylglucosamine (NAG), N-acetyllactosamine nor cellotriose had inhibitory properties | –
– | 48±1 % of baseline | 55±1 % of baseline | 60±0 % of baseline | CC(=O)N[C@H]1C(O)O[C@H](CO)[C@@H](O[C@@H]2O[C@H](CO)[C@H](O)[C@H](O)[C@H]2O)[C@@H]1O (stereo partly shown) [N-acetyllactosamine] | neither N-acetylglucosamine (NAG), N-acetyllactosamine nor cellotriose had inhibitory properties | –
– | 44±2 % of baseline | 61±4.5 % of baseline | 85±2 % of baseline | CC(=O)N[C@H]1C(O)O[C@H](CO)[C@@H](O)[C@@H]1O (stereo partly shown) [N-acetylglucosamine] | neither N-acetylglucosamine (NAG), N-acetyllactosamine nor cellotriose had inhibitory properties | –

— patent US7402575B2, “Methods of treating inflammation” (priority 2003, dated 2008)
